What was measured:
Assay in all cases: relative viability (nuclei count vs DMSO), 5 days (fraction); higher = more cells survive
[1] = compound: CC(C)N(CCCNC(=O)Nc1ccc(C(C)(C)C)cc1)C[C@H]1O[C@@H](n2ccc3c(N)ncnc32)[C@H](O)[C@@H]1O + N=C(N)NC(=N)NCCc1ccccc1 [Phenformin] (partner 250 µM)
Summary of the method: (§1)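 Lung cancer cell lines were pin-tool dosed in 1536-well plates on the day after seeding, with either a lone drug or a fixed anchor-drug dose plus five library-drug doses (not always all listed) in √10 steps. Nuclei were counted on 4× images after 5 days. Relative viability is the ratio of treated-well to vehicle-well nuclei counts, with each value a median of duplicate plates.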

[2] = compound: CC(C)N(CCCNC(=O)Nc1ccc(C(C)(C)C)cc1)C[C@H]1O[C@@H](n2ccc3c(N)ncnc32)[C@H](O)[C@@H]1O
Summary of the method: (§2)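 Lung cancer cell lines in 1536-well plates were kept overnight at 37 °C, then pinned with five library-drug doses (not always all listed) spaced by √10 on vehicle-anchored plates. After 5 days without medium change, cells were fixed, permeabilised and Hoechst-stained in one step, imaged at 4×, and nuclei were counted with MetaXpress. Viability is treated-well nuclei divided by vehicle-well nuclei, taken as the median over plates. Plates passed only with control CV below 25% and at least one doubling.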

Shikonin = compound: CC(C)=CC[C@@H](O)C1=CC(=O)c2c(O)ccc(O)c2C1=O [Shikonin]
Summary of the method: as §2

Shikonin + Navitoclax = compound: CC(C)=CC[C@@H](O)C1=CC(=O)c2c(O)ccc(O)c2C1=O [Shikonin] + CC1(C)CCC(c2ccc(Cl)cc2)=C(CN2CCN(c3ccc(C(=O)NS(=O)(=O)c4ccc(N[C@H](CCN5CCOCC5)CSc5ccccc5)c(S(=O)(=O)C(F)(F)F)c4)cc3)CC2)C1 [Navitoclax] (partner 0.5 µM)
Summary of the method: as §1

Cell Line	relative viability ([1]; first compound 0.08 µM)	relative viability ([1]; first compound 0.253 µM)	relative viability ([1]; first compound 0.8 µM)	relative viability ([1]; first compound 2.53 µM)	relative viability ([1]; first compound 8 µM)	relative viability ([2]; 0.08 µM)	relative viability ([2]; 0.253 µM)	relative viability ([2]; 0.8 µM)	relative viability ([2]; 2.53 µM)	relative viability ([2]; 8 µM)	relative viability (Shikonin; 0.01 µM)	relative viability (Shikonin; 0.1 µM)	relative viability (Shikonin; 0.3162 µM)	relative viability (Shikonin; 1 µM)	relative viability (Shikonin + Navitoclax; first compound 0.01 µM)	relative viability (Shikonin + Navitoclax; first compound 0.1 µM)	relative viability (Shikonin + Navitoclax; first compound 0.3162 µM)	relative viability (Shikonin + Navitoclax; first compound 1 µM)
NCI-H2342	0.574	0.553	0.499	0.532	0.493	1.01	1.08	0.815	1.01	1.05	0.941	0.943	1.11	0.991	–	–	–	–
HCC-15	0.466	0.483	0.431	0.423	0.407	0.938	0.986	0.786	0.979	0.914	1.06	1.04	1.12	1.09	0.742	0.655	0.784	0.747
A-427	0.368	0.303	0.335	0.364	0.315	0.962	0.93	1.03	0.958	0.984	1.03	1.17	1.02	1.16	0.931	1.14	0.99	0.983
NCI-H23	0.771	0.806	0.791	0.843	0.746	0.912	0.707	1.07	0.931	0.9	1.02	1.11	1	0.981	0.821	0.748	0.935	0.781
NCI-H1734	0.38	0.331	0.398	0.4	0.397	0.926	0.804	0.962	0.949	0.916	0.935	1.15	1.02	0.991	0.941	0.83	0.949	0.74
NCI-H520	0.606	0.342	0.353	0.655	0.618	0.882	0.773	0.793	0.98	0.939	0.947	1.06	0.977	0.931	–	1.1	1.19	1
RERF-LC-KJ	0.384	0.378	0.422	0.386	0.395	0.951	1.05	0.966	0.968	0.912	1.09	0.986	1.02	1.03	0.835	0.996	0.758	1.11
NCI-H1915	0.362	0.388	0.378	0.388	0.353	0.957	1.01	0.848	0.947	0.942	1.07	1.17	1.05	1.06	0.719	0.793	0.795	0.847
NCI-H1666	0.546	0.594	0.543	0.586	0.542	1.06	1.03	0.975	1.05	0.914	0.966	1.02	1.08	1.05	0.923	1.02	0.962	0.723
HCC-366	0.625	0.627	0.754	0.588	0.53	0.965	0.988	0.927	0.984	0.892	0.975	1.15	1.04	1.03	1.08	1.06	1.09	1.08
SK-MES-1	0.663	0.669	0.692	0.69	0.617	0.996	0.942	0.99	1.02	0.939	1.04	1.08	1.1	0.962	1.25	1.19	1.29	1.29
NCI-H1993	0.464	–	–	0.539	0.498	0.86	–	0.905	0.919	0.922	0.915	1.01	0.94	0.974	–	0.814	0.936	1.01
NCI-H838	0.487	0.394	0.551	0.551	0.51	0.92	0.748	0.931	0.958	0.904	1.09	1.04	1.03	0.988	1.12	1.25	1.28	1.2
SK-LU-1	0.569	0.493	0.519	0.56	0.45	1.01	1.06	0.989	1.1	0.941	1.05	1.05	1.21	1.03	0.966	0.972	1.08	0.589
NCI-H1623	0.547	0.666	0.597	0.607	0.565	0.947	0.968	0.934	0.911	1.01	0.934	0.817	1.08	1.07	–	–	–	–
